These results are taken from US8895552B2, “Cyclic amide derivative” (Sumitomo Dainippon Pharma Co., Ltd., priority 2010, dated 2014).

Structures are written as SMILES. Bounds are passed on as bounds.

T2 sequence (P28845 whole entry): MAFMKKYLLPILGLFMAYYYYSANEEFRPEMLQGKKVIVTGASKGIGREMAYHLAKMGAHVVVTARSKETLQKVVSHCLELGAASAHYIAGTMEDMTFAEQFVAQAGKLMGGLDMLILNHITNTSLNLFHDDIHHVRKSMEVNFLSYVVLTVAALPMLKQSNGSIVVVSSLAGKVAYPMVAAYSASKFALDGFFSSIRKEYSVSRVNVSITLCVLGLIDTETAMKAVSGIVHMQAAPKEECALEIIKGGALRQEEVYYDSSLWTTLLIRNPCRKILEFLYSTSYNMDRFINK

The target in one assay is T1, cortisone reductase (11βHSD1) (Mus musculus, UniProt P50172).
T1 construct: host or cells: primary cells from visceral fat tissue of ICR male mice, differentiated to adipocytes in culture
T1 sequence (P50172 whole entry): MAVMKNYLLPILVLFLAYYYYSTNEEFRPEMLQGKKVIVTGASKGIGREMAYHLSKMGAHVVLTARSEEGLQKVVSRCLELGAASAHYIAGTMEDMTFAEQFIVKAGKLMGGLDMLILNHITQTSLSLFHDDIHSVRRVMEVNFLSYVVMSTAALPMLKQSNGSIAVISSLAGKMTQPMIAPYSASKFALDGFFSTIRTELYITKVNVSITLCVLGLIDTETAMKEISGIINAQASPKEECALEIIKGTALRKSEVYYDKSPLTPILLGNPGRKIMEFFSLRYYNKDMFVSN
As to the kind of experiment: Inhibitory activity assay against cortisone reductase of mouse primary adipocytes. Conditions: differentiated primary adipocytes from visceral fat of ICR male mice, 100 nM [1,2-3H] cortisone, 37° C., read-out: IC50 against cortisone reductase of mouse adipose cell. It is filed as cell-based. On the procedure: Experiment 2: Inhibitory Activity Assay Against Cortisone Reductase of Mouse Primary Adipocytes
The adipose tissues adhered to the mesenterium and around the testicle of ten ICR male mice (9 to 11 weeks old, Japan SLC Inc.) (hereinafter, referred to as visceral fat tissue) were soaked in about 100 mL of a phosphate buffer (0.20 g/L KCl, 0.20 g/L KH2PO4, 8.00 g/L NaCl, 2.16 g/L Na2HPO4.7H2O, 100 unit/ml penicillin (GIBCO), 100 μg/ml streptomycin (GIBCO), 250 ng/ml amphotericin (GIBCO)) and washed at room temperature.
The excised visceral fat tissues was cut finely in about 5×5 mm with scissors in Dulbecco's modified Eagle medium (about 50 ml, containing 4.5 g/L D-glucose and 584 mg/L L-glutamine, GIBCO) to which collagenase (Type II, Sigma), penicillin (GIBCO), streptomycin (GIBCO) and amphotericin (GIBCO) were added in an amount so that the final concentrations thereof are adjusted to 1 mg/ml, 100 unit/ml, 100 μg/ml and 250 ng/ml, respectively. Then, the mixture was shaken at 37° C. for 30 minutes (about 170 rpm), filtered through nylon mesh (80S [the pore size: 250 μm], SANSHIN INDUSTRIAL CO., LTD.), and the filtrate (cell suspension) was collected. This filtrate was centrifuged at 1800 rpm at room temperature for 5 minutes, and then, the liquid layer was removed stilly by decantation to give a precipitate. This precipitate was suspended in Dulbecco's modified Eagle medium (30 ml, containing 4.5 g/L D-glucose and 584 mg/L L-glutamine, GIBCO; hereinafter, occasionally referred to as FBS-containing medium), to which fetal bovine serum (hereinafter referred to as FBS, GIBCO), ascorbic acid (Wako Pure Chemical Industries, Ltd.), penicillin (GIBCO), streptomycin (GIBCO) and amphotericin (GIBCO) are added thereto in an amount so that the final concentrations thereof were adjusted to 10%, 200 μM, 100 units/ml, 100 μg/ml and 250 ng/ml, respectively, and then the suspension was filtered through a nylon mesh (420S [pore size: 25 μm], SANSHIN INDUSTRIAL CO., LTD.). The filtrate was collected, and centrifuged at 1800 rpm at room temperature for 5 minutes. The liquid layer was removed stilly by decantation, and the precipitate was suspended again in the FBS-containing medium (30 ml). This suspension was treated by the same procedure (centrifugation, removal of liquid layer, suspension in FBS-containing medium) two times more, and the suspension (90 ml) was prepared. This suspension was put into cell culture flasks (T150, for adhered cell culture, Iwaki Glass) in a each volume of 30 ml, and incubated at 37° C. in the presence of 5% CO2. At 5 to 6 hours after starting incubation, the medium was removed, and the wall of the flask was washed with the above-mentioned phosphate buffer (15 ml). The washing liquid was removed, and the washing procedure was repeated again, and the phosphate buffer was removed. To the flask was added FBS-containing medium (30 ml), and the mixture was incubated at 37° C. in the presence of 5% CO2. On Day 1 or Day 2 after the culture started, the medium was removed, and the wall of the flask was washed with the phosphate buffer (15 ml) once. To the flask was added a trypsin-ethylenediamine tetraacetate (hereinafter, referred to as trypsin-EDTA) solution (0.05% trypsin, 0.53 mM EDTA.4Na, GIBCO) in such a volume that the cells are duly soaked, and the mixture was allowed to stand at 37° C. for 5 minutes. To this mixture was added the FBS-containing medium in about 10-times volume of that of the trypsin-EDTA solution, and then the cell suspension was obtained.
The cells in the cell suspension were counted with a counting chamber, and the cell suspension was diluted with the FBS-containing medium so that the concentration of the cell was adjusted to 1.4×10^5 cells/ml. Thus obtained cell dilution was put into a 48-well plate (for adherent cell culture, Iwaki Glass) in an amount of 300 μl per well, and the plate was incubated at 37° C. in the presence of 5% CO2 for 1 to 2 day(s). […]
As usually defined, the IC50 is the concentration needed to halve the response being measured. `CCOc1cc(C(=O)c2cc(F)ccc2F)ccc1C(=O)NC1C2CC3CC1CC(O)(C3)C2` (stereo not drawn) [Example 258]: the IC50 stood at 3.2 nM.

Consider `Cn1c(C(=O)c2ccccc2F)cc(Cl)c1C(=O)NC1C2CC3CC1CC(O)(C3)C2` (stereo not drawn) [Example 514], for which the IC50 was 20.7 nM. On the same count and under the same terms, the result for `COc1cc(C(=O)c2cccn2C)ccc1C(=O)NC1C2CC3CC1CC(O)(C3)C2` (stereo not drawn) [Example 55] reads 4.8 nM. Still for that read-out and setting: the result for `Cc1cc(C(=O)c2cccs2)sc1C(=O)NC1C2CC3CC1CC(O)(C3)C2` (stereo not drawn) [Example 10] reads 11.7 nM.

With `CCc1cc(C(=O)C(C)(C)c2ccccc2)n(C)c1C(=O)NC1C2CC3CC1CC(O)(C3)C2` (stereo not drawn) [Example 505], the IC50 amounted to 9.6 nM.

With `Cc1cc(C(=O)C2CCOCC2)sc1C(=O)N[C@H]1C2CC3CC1C[C@](O)(C3)C2` [Example 9], the IC50 was 11.1 nM.

Regarding `CCc1cc(C(=O)c2c(F)cccc2F)n(C)c1C(=O)NC1C2CC3CC1CC(O)(C3)C2` (stereo not drawn) [Example 487], the IC50 amounted to 25 nM. Consider `Cc1cc(C(=O)c2cccn2C)sc1C(=O)NC1C2CC3CC1CC(O)(C3)C2` (stereo not drawn) [Example 11], for which the IC50 came to 5.1 nM. Regarding `CCc1cc(C(=O)c2cccn2C)n(C)c1C(=O)NC1C2CC3CC1CC(O)(C3)C2` (stereo not drawn) [Example 485], the IC50 was 18.4 nM.

Another assay addresses T2, 11βHSD1 (Homo sapiens, UniProt P28845).
T2 construct: host or cells: normal human visceral preadipocytes differentiated to adipocytes
Kind of assay: Inhibitory activity assay against cortisone reducing activity of cultured human adipocytes. The conditions noted are these: differentiated normal human preadipocytes (HPrAD-vis), 100 nM [1,2-3H] cortisone, 37° C., read-out: IC50 against cortisone reducing activity of human adipose cell. It is filed as cell-based. On the procedure:
Experiment 1: Inhibitory Activity Assay Against Cortisone Reducing Activity of Cultured Human Adipocytes
Normal human preadipocytes (HPrAD-vis, manufactured by Cambrex corporation) were inoculated onto a 48-well cell culture plate, and the differentiation induction was carried out according to Protocol attached to the kit. The medium for the cells on the 9-11 days of the differentiation was changed to D-MEM medium (0.2 ml; manufactured by GIBCO) containing 100 nM [1,2-^3H] cortisone (1 μCi/well, manufactured by Muromachi Yakuhin), 0.5% dimethylsulfoxide and a test compound (for test compound treated group, or dimethylsulfoxide only for the no-test compound treated group). The plate was incubated at 37° C. for 3 hours, and then the whole medium was collected. As a background group, the medium without cell was used. The medium was mixed with ethyl acetate (0.1 ml) in an Eppendorf tube. This mixture was voltexed, and then further centrifuged at 5,000 rpm for one minute at room temperature to separate the ethyl acetate (the upper layer). The ethyl acetate (10 μl) was spotted on an aluminium plate for thin layer chromatography (silica gel 60 angstrom, Merck & Co., Inc., hereinafter referred to as TLC plate). The developing solvent (chloroform/methanol (90:10, v/v)) was put into a sealed vessel, and the TLC plate was developed, and then dried at room temperature. An imaging plate (TR-2040, Fujifilm) was exposed onto the dried TLC plate for 16 hours or more. After the exposure was completed, the imaging plate was analyzed by Bioimage Analyzer (BAS2500, Fujifilm), and the [^3H] radioactivity was measured at the corresponding position of cortisol developed on the TLC plate. The inhibitory activity of a test compound against cortisone reducing activity was calculated according to the following equation. (inhibitory activity(%))=100×((group without test compound)−(group with test compound))/((group without test compound)−(background group))
The IC50 value was calculated by linear regression of logarithmic value of the concentration of test compound and the inhibitory activity value, using the data at 2 points showing around 50% of the inhibitory activity. […] The IC50 value of the following compounds of the present invention against cortisone reducing activity of human adipose cell was determined.
With `CCc1cc(C(=O)c2cccc(F)c2F)n(C)c1C(=O)NC1C2CC3CC1CC(O)(C3)C2` (stereo not drawn) [Example 488], the IC50 was 4.2 nM. The same measure, in the same setting: the result for `COCCc1cc(C(=O)c2ccccc2F)ccc1C(=O)N[C@H]1C2CC3CC1C[C@](O)(C3)C2` [Example 443, 4-(2-Fluorobenzoyl)-N-[(E)-5-hydroxyadamantan-2-yl]-2-(2-methoxyethyl)benzamide] reads 1.4 nM; that for `COCc1cc(C(=O)c2ccccc2)n(C)c1C(=O)N[C@H]1C2CC3CC1C[C@](O)(C3)C2` [Example 440, 5-Benzoyl-N-[(E)-5-hydroxyadamantan-2-yl]-3-(methoxymethyl)-1-methyl-1H-pyrrole-2-carboxamide], less than 3 nM; that for `Cn1c(C(=O)c2cccc(F)c2)cc(Cl)c1C(=O)NC1C2CC3CC1CC(O)(C3)C2` (stereo not drawn) [Example 515], 1.5 nM. `Cc1cc(C(=O)c2ccccc2)n(C)c1C(=O)N[C@H]1C2CC3CC1C[C@](O)(C3)C2` [Example 62]: the IC50 was less than 3 nM. Same read-out and setting: the result for `Cn1cccc1C(=O)c1ccc(C(=O)N[C@H]2C3CC4CC2C[C@](O)(C4)C3)c(Cl)c1` [Example 53] reads 16 nM; that for `CCc1cc(C(=O)c2ccc(C)s2)n(C)c1C(=O)NC1C2CC3CC1CC(O)(C3)C2` (stereo not drawn) [Example 499], less than 3 nM; that for `O=C(c1ccc(C(=O)NC2C3CC4CC2CC(O)(C4)C3)c(Cl)c1)c1ccccc1F` (stereo not drawn) [Example 16], 3.6 nM. On the same count and under the same terms, the result for `CCn1nccc1C(=O)c1ccc(C(=O)NC2C3CC4CC2CC(O)(C4)C3)c(COC)c1` (stereo not drawn) [Example 368] reads 3.7 nM; that for `COCc1cc(C(=O)c2ccccc2)ccc1C(=O)N[C@H]1C2CC3CC1C[C@](O)(C3)C2` [Example 51], less than 3 nM. On the same count and under the same terms, the result for `CCc1cc(C(=O)c2ccc(F)cc2)ccc1C(=O)NC1C2CC3CC1CC(O)(C3)C2` (stereo not drawn) [Example 98] reads 3 nM.

In the case of `Cn1c(C(=O)c2ccc(F)cc2)cc(Cl)c1C(=O)NC1C2CC3CC1CC(O)(C3)C2` (stereo not drawn) [Example 516], the IC50 was less than 3 nM. Still for that read-out and setting: the result for `CCCc1cc(C(=O)c2cccn2C)ccc1C(=O)NC1C2CC3CC1CC(O)(C3)C2` (stereo not drawn) [Example 424] reads less than 3 nM; that for `CCc1cc(C(=O)c2cccc(OC)c2F)n(C)c1C(=O)NC1C2CC3CC1CC(O)(C3)C2` (stereo not drawn) [Example 486], 2.8 nM; that for `Cc1cc(C(=O)c2cccn2C)sc1C(=O)NC1C2CC3CC1CC(O)(C3)C2` (stereo not drawn) [Example 11], 4.3 nM. Still for that read-out and setting: the result for `COCc1cc(C(=O)c2ccccn2)ccc1C(=O)NC1C2CC3CC1CC(O)(C3)C2` (stereo not drawn) [Example 429] reads 9.5 nM; that for `O=C(Cc1ccccc1)c1ccc(C(=O)N[C@H]2C3CC4CC2C[C@](O)(C4)C3)c(Cl)c1` [Example 52], 12 nM; that for `CCc1cc(C(=O)C2(c3ccccc3)CCC2)n(C)c1C(=O)NC1C2CC3CC1CC(O)(C3)C2` (stereo not drawn) [Example 504], 7.3 nM.
